The values that follow are results of earlier work, collected in patent publication US9907754B2 (VECTURA LIMITED, priority 2013, dated 2018).

Bounds are passed on as bounds.

The conditions of data set [1]: EFSA; no indications of inhalation toxicity or intolerability.
The conditions of data set [2]: henderson-hasselbalch (1908).

Take `OC[C@@H](O)[C@@H](O)[C@H](O)[C@H](O)CO` [Mannitol]: the “water pick up, % of mass” value (humidity >70% RH) is listed as 10%. Moreover, the moisture pick up entry (relative humidity as high as 70%) was “less than 1%”.

For `NCCS(=O)(=O)O` [Taurine, 2-aminoethanesulfonic acid], in data set [1], the tolerable dose is over 1000 mg/kg/day. The “pKa of the sulphur-hydryl group” value in data set [2] was 1.49.
